pIC50: −log10 of the molar value. Entries after “also recorded” stand apart in the source; their conditions may differ. Like-named read-outs stand apart in the source and are kept apart here.
How the values were obtained:
[1] = test system: DNFB-induced contact hypersensitivity; assay: contact hypersensitivity response to DNFB, ear thickness; assay type: in vivo, Balb/c female mice; conditions: intramuscular, 6 consecutive days during induction phase; rosmarinic acid 5-50 mg/kg/day
Procedure: In vivo test procedure evaluating the immunosuppressive activity was performed using contact hypersensitivity response to DNEB (2,4-dinitroflourobenzene). […] This is an antigen-specific T cell-mediated inflammatory response that represents delayed-type hypersensitivity (DTH) reactions seen in both humans and other mammals. The contact sensitivity animal model is used routinely in many laboratories for pharmacological screening of anti-inflammatory agents and agents for the treatment of autoimmune diseases. […] The procedure is summarized as following. Balb/c female mice were used at 8 weeks of age. Twenty μl of 0.5% DNFB (Sigma Chemical Co.) in 4:1 diluted acetone: olive oil (Sigma Chemical Co.) was painted on each shaved abdominal skin for 2 successive days. Four days later, the mice were challenged by applying 10 μl of 0.2% DNFB in the same vehicle to each side of each ear. Cydosporin A and rosmarinic acid were treated through intramuscular administration at the indicated doses from 0 to 5 day. Ear thickness was measured using engineer's micrometer (Mitutoyo Co. Mfg. Ltd., Tokyo) 24 h after postchallenge.

[2] = test system: C57BL/6 tail-skin graft on Balb/c recipient mice; assay: skin allograft rejection, survival time of skin graft; assay type: in vivo
Procedure: In vivo procedure evaluated the survival time of a skin graft.
Experimental allograft rejection was performed by grafting allogeneic C57BL/6 (H-2b) mouse tail-skin onto Balb/c (H-2d) recipient mice. Rosmarinic acid and derivative thereof were administered intramuscularly from the day of the transplantation until rejection. […] Full-thickness donor (C57BL/6) tail skin grafts (square pieces 2.0×2.0 cm) were transplanted onto the lateral thorax of recipient mice (Balb/C) and covered with sterile bactericidal gauze. The entire chest was then wrapped with an elastic bandage. […] Skin graft were monitored daily after the removal of the bandage on day 6. Rejection was defined as more than 90% necrosis of the graft epithelium.

Lck SH2 domain = molecular target: T1, Lck SH2 domain (Homo sapiens, UniProt P06239); assay: in vitro binding between Lck SH2 domain (GST fusion) and biotinylated phosphotyrosyl peptide; conditions: for IC50: read-out: half-maximal inhibitory concentration (IC50) of binding to Lck SH2 domain (converted)
T1 construct: Lck SH2 domain expressed and purified as a fusion protein with Glutathione-S-transferase; made in house
T1 sequence (P06239 127-224 limits assumed): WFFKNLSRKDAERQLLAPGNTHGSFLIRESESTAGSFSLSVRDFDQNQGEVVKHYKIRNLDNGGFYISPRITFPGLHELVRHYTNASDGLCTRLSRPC
Text: A novel screening system was developed in the present invention to screen a substance inhibiting the interaction between Lck SH2 domain and its ligand. In the binding assay, Lck SH2 domain expressed and purified as a fusion protein with Glutathione-S-transferase (GSI) were covalently attached to 96-well microtitre plates through amide bond formation. The immobilized proteins were subsequently allowed to bind biotinylated phosphotyrosine (Y)-containing synthetic peptide (biotin-[…]pYEEIPI) known as a high affinity ligand for the Lck SH2 domain.
For attachment to 96-well microtitre plate, 1 μM of purified fusion protein (GST-Lck SH2) was reacted for 2 hours at room temperature. Added to the binding assay were 1 μM of the biotinylated synthetic peptide (the ligand of Lck SH2 domain) and a candidate for the inhibitor. The candidates were thousands of natural products including various kinds of Streptoryces, fungi and herbs extract. Binding reaction was performed for 2 hours at room temperature, allowing the competitive inhibition of the binding between GST-Lck SH2 and the peptide ligand. Then peroxidase-conjugated streptavidin (Pierce, USA) was added into the mixture so that added conjugates can be bound to biotinylated peptide. After unbound conjugates were washed, coloring reaction was performed to measure the activity of immobilized peroxidase, or the binding activity of the peptide to SH2 domain in the presence of the candidate added. More particularly, the coloring reaction was initiated by adding 3,3,5,5-tetramethyl benzidine (substrate) to the reaction mixture. After 30 minutes, the reaction was stopped by adding 0.8M sulfuric acid, and immediately brought to the spectrophotometry of measuring absorbance at 450 nm.
Various concentrations (0.03~300 μg/ml) of rosmarinic acid solution, which was isolated from Prunella vulgaris or derivatives thereof, were added to the protein-coated micro-well mixed with phosphopeptide solution. The binding of biotiyated pY peptides was detected by the streptavidin-conjugated horseradish peroxidase (HRP).

[3] = test system: IL-2 gene expression in Jurkat T cells; assay: TCR stimulation-induced IL-2 gene expression, IL-2-luciferase reporter system; assay type: cell-based; conditions: 8 μM, 30 min prior to T cell activation
Procedure: The effects of rosmarinic acid and derivatives thereof on the level of IL-2 gene expression were tested by using the IL-2-luciferase reporter system, in which cultured cells were transfected with a reporter plasmid. The plasmid was constructed by fusion of the IL-2 promoter sequence with the structural gene of luciferase. […] Cells were activated by incubation for 14 h on a 35 mm dish coated with 5 μg/ml anti-CD3 antibody (UCHT1, Pharmingen) and/or anti-CD4 antibody (RPA-T4, Pharmingen) and then harvested. For PMA plus Iononycin stimulation, 5 ng/ml of PMA and 500 ng/ml of lonomycin were added to the culture media and incubated for 14 h. Luciferase activity was determined three times in duplicate for each experiment with a Berthold luminometer LB953.

SPF SD type rat = assay: parenteral administration test for acute toxicity; assay type: in vivo
Text: Acute toxicity was examined using 6week-old SPF SD type rat. As liposomal form, I g/kg of rosmarinic acid, rosmarinyl isopropyl ester, rosmarinyl ethyl ester, (S)-rosmarinyl bis(tert-butyldimethylsilyl)ether or (S)-rosmarinic acid was intramuscularly injected into two […] per experimental group.

Jurkat cells = assay: intracellular calcium signaling activated by anti-CD3 and anti-CD4 antibodies (Fura-2/AM); assay type: cell-based; conditions: 0.5-50 μg for 10 minutes, then anti-CD3 and anti-CD4 antibodies
Procedure: Fura-2/AM (Calbiochem, San Diego, Calif., USA), a fluorescent indicator of intracellular calcium, was loaded into Jurkat cells, and various amounts (0.5 μg, 1 μg, 10 μg, 50 μg) of rosmarinic acid, isolated from Prunella vulgaris, was treated to the cells for 10 minutes. The cells were treated with anti-CD3 and anti-CD4 antibodies, and then the fluctuation of intracellular calcium level was recorded by the amount of fluorescence emitted from the cells.

[4] = test system: IL-1β, IL-2, IL-4, IL-6 and IFN-γ mRNA; assay: cytokine mRNA in renal allografts, semi-quantitative RT-PCR; assay type: in vivo, mice; conditions: renal allograft day 7, i.m. daily 7 days, rosmarinic acid 25, Cyclosporin A 50 mg/kg/day
Text: Balb/c recipients transplanted from C57BL/6 donor were killed at 7 day after the subcapsular kidney transplantation. Renal allografts were harvested and total cellular RNA was extracted and analyzed for the expression of various cytokine mRNA. Using a serniquantitative PCR method, we temporally analyzed mRNA levels of IL-1β, IL-2, IL-4, IL-6 and IFN-γ.
The cytokine levels of PCR products were normalized by β-actin mRNA used as a control.
Kidney fragments (C57BL/6) were transplanted to allogeneic mice (Balb/C) using subcapsular kidney transplantation technique.
Total RNA from the grafts was isolated using TRIZOL® LS Reagent (Life Technologies), incubated at room temperature for 15 min after addition of chloroform, extracted with phenol/chloroform, and precipitated with isopropanol. Isolated total RNA was then quantitated spectrophotometrically. Total RNA from the graft (1 μg) was performed using Titan™ One Tube RT-PCR System (BM) according to the manufacture's protocol. The PCR was done in a 50 μl volume containing 1× RT-PCR buffer with Mg^2+, 0.2 mM each dNTP(dATP, dGTP, dCTP and dTTP), 10U RNase inhibitor, enzyme mix (AMV and Expand™ High Fidelity PCR-System),5 mM DTT solution and 0.4 μM appropriate primer pair. Primer sequences for IL-2, IFN-γ, IL-4, IL-6, IL-1β and β-actin were obtained from previous reports. […] The number of amplification cycles was 25. An aliquot (15 μl) of the PCR product was electrophoresed on 2% agarose gel, and amplified DNA fragments were stained with ethidium bromide.

[5] = 1 g/kg intramuscular, liposomal form
[6] = GST-Lck SH2, 1 μM biotinylated pY peptide, 0.03~300 μg/ml tested

| SMILES | suppression of DNFB-induced contact hypersensitivity [1] | MST ± SD ([2]; 15 mg/kg/day i.m.) | pIC50 (Lck SH2 domain; read-out: half-maximal inhibitory concentration (IC50) of binding to Lck SH2 domain, GST-Lck SH2, 1 μM biotinylated pY peptide, 0.03~300 μg/ml tested) | inhibition of TCR-induced IL-2 gene expression (luciferase activity) [3] | acute toxic effect (clinic symptom, weights, blood test, autopsy) (SPF SD type rat; [5]) | survival after acute dose (SPF SD type rat; [5]) | pIC50 (Lck SH2 domain) | inhibitory effect on intracellular calcium level (Jurkat cells) | IFN-γ mRNA transcription in allograft transplants [4] | IL-1β mRNA transcription in allograft transplants ([4]; 50 mg/kg/day) | IL-2 mRNA transcription in allograft transplants ([4]; 50 mg/kg/day) | IL-4 mRNA transcription in allograft transplants ([4]; 50 mg/kg/day) | IL-6 mRNA transcription in allograft transplants ([4]; 50 mg/kg/day) | MST ± SD ([2]; 15 mg/kg/day i.m., listed as rosmarinic acid) | MST ± SD ([2]; 25 mg/kg/day i.m.) | IC50 (Lck SH2 domain; [6]) | survival after acute dose (SPF SD type rat; in vivo) |
| --- | --- | --- | --- | --- | --- | --- | --- | --- | --- | --- | --- | --- | --- | --- | --- | --- | --- |
| CC(C)(C)[Si](C)(C)Oc1ccc(/C=C/C(=O)O[C@@H](Cc2ccc(O)c(O)c2)C(=O)O)cc1O[Si](C)(C)C(C)(C)C [(S)-Rosmarinyl bis(tert-butyldimethylsilyl)ether] | dose-dependent suppression | 13.2 ± 1.6 days | 4.66 | inhibited as much as rosmarinic acid | did not elicit any toxic effect | all tested animals were survived | – | – | – | – | – | – | – | – | – | – | – |
| O=C(/C=C/c1ccc(O)c(O)c1)O[C@@H](Cc1ccc(O)c(O)c1)C(=O)O [(S)-rosmarinic acid] | dose-dependent suppression | 14.8 ± 1.5 days | – | inhibited as much as rosmarinic acid | did not elicit any toxic effect | all tested animals were survived | 4.56 | – | – | – | – | – | – | – | – | – | – |
| O=C(/C=C/c1ccc(O)c(O)c1)OC(Cc1ccc(O)c(O)c1)C(=O)O (centres unmarked) [Rosmarinic acid, rosmarinic acid] | dose-dependently suppressed | 14.0 ± 1.0 days | – | more efficiently than other immunosuppressants did | did not elicit any toxic effect | all tested animals were survived | 5.08 | dose-dependent inhibitory effect | markedly inhibited | markedly inhibited; also recorded: more potent activity than that of Cyclosporin A | markedly inhibited; also recorded: more potent activity than that of Cyclosporin A | markedly inhibited; also recorded: significantly reduced | markedly inhibited; also recorded: significantly reduced | 14.0 days | 18.8 ± 3.6 days | – | – |
| CCOC(=O)C(Cc1ccc(O)c(O)c1)OC(=O)/C=C/c1ccc(O)c(O)c1 (centres unmarked) [Rosmarinyl ethyl ester] | dose-dependent suppression | 14.4 ± 1.8 days | – | inhibited as much as rosmarinic acid | did not elicit any toxic effect | – | – | – | – | – | – | – | – | – | – | 10.3 µM | all tested animals were survived |
| CC(C)OC(=O)C(Cc1ccc(O)c(O)c1)OC(=O)/C=C/c1ccc(O)c(O)c1 (centres unmarked) [Rosmarinyl isopropyl ester] | dose-dependent suppression | 14.2 ± 1.8 days | – | inhibited as much as rosmarinic acid | did not elicit any toxic effect | – | – | – | – | – | – | – | – | – | – | 2.49 µM | all tested animals were survived |

From US6140363A, “Use of rosmarinic acid and derivatives thereof as an immunosuppressant or an inhibitor of SH2-mediated processes” (Mogam Biotechnology Research Institute, priority 1998, dated 2000)
